# Patent US4272437A, “Antibacterial agents, and 4-thio azetidinone intermediates” (priority 1979, dated 1981)
# Like-named read-outs stand apart in the source and are kept apart here.
# Tests used:
# [1] = system: Klebsiella species A20468; assay: MIC, tube dilution, Klebsiella species A20468; assay type: cell-based; details: Klebsiella species (K. pneumoniae) A20468, overnight 37° C.; for MIC: read-out: Minimum Inhibitory Concentration (M.I.C.)
# Source text: (§1) Representative compounds of the present invention were subjected to in vitro antibiotic screening against a variety of microorganisms.
# K. pneumoniae A-15130 = assay: MIC, tube dilution, Klebsiella pneumoniae A15130; assay type: cell-based; details: overnight 37° C.; for MIC: Klebsiella pneumoniae, A15130, K. pneumoniae A15130, read-out: Minimum Inhibitory Concentration (M.I.C.)
# Source text: as §1
# Str. faecalis A-20688 = assay: MIC, tube dilution, Streptococcus faecalis A20688; assay type: cell-based; details: overnight 37° C.; for MIC: Enterococcus faecalis, A20688, Str. faecalis A20688, read-out: Minimum Inhibitory Concentration (M.I.C.)
# Source text: as §1
# Ps. aeruginosa A-9843A = assay: MIC, tube dilution, Pseudomonas aeruginosa A9843A; assay type: cell-based; details: overnight 37° C.; for MIC: Pseudomonas aeruginosa, A9843A, read-out: Minimum Inhibitory Concentration (M.I.C.), Pseudomonas aeruginosa A9843A
# Source text: as §1
# Proteus rettgeri A21203 = assay: MIC, tube dilution, Proteus rettgeri A21203; assay type: cell-based; details: overnight 37° C.; for MIC: Providencia rettgeri, read-out: Minimum Inhibitory Concentration (M.I.C.)
# Source text: as §1
# [2] = system: Staph. aureus (Pen-Res) A-9606; assay: MIC, tube dilution, Staphylococcus aureus A9606 (Pen-Res); assay type: cell-based; details: overnight 37° C.; for MIC: Staphylococcus aureus
# Source text: as §1
# Pr. mirabilis A-9900 = assay: MIC, tube dilution, Proteus mirabilis A9900; assay type: cell-based; details: overnight 37° C.; for MIC: Proteus mirabilis, A9900, Proteus mirabilis A9900, read-out: Minimum Inhibitory Concentration (M.I.C.)
# Source text: as §1
# [3] = system: Staph. aureus (Meth-Res) A-15097; assay: MIC, tube dilution, Staphylococcus aureus A15097 (Meth-Res); assay type: cell-based; details: overnight 37° C.; for MIC: Staphylococcus aureus
# Source text: as §1
# Str. pyogenes A-9604 = assay: MIC, tube dilution, Streptococcus pyogenes A9604; assay type: cell-based; details: overnight 37° C., Nutrient Broth; for MIC: Streptococcus pyogenes, A9604, Str. pyogenes A9604, read-out: Minimum Inhibitory Concentration (M.I.C.)
# Source text: as §1
# Str. pneumoniae A-9585 = assay: MIC, tube dilution, Streptococcus pneumoniae A9585; assay type: cell-based; details: overnight 37° C., Nutrient Broth; for MIC: Streptococcus pneumoniae, A9585, Str. pneumoniae A9585, read-out: Minimum Inhibitory Concentration (M.I.C.)
# Source text: as §1
# Ps. aeruginosa A-21213 = assay: MIC, tube dilution, Pseudomonas aeruginosa A21213; assay type: cell-based; details: Pseudomonas aeruginosa A21213, overnight 37° C.; for MIC: read-out: Minimum Inhibitory Concentration (M.I.C.)
# Source text: as §1
# E. coli A-20341-1 = assay: MIC, tube dilution, Escherichia coli A20341-1; assay type: cell-based
# Source text: as §1
# E. coli A-15119 = assay: MIC, tube dilution, Escherichia coli A15119; assay type: cell-based; details: overnight 37° C.; for MIC: Escherichia coli, A15119, E. coli A15119, read-out: Minimum Inhibitory Concentration (M.I.C.)
# Source text: as §1
# Pr. morganii A-15153 = assay: MIC, tube dilution, Proteus morganii A15153; assay type: cell-based; details: overnight 37° C.; for MIC: Morganella morganii, A15153, Proteus morganii A15153, read-out: Minimum Inhibitory Concentration (M.I.C.)
# Source text: as §1
# Staph. aureus A-9537 = assay: MIC, tube dilution, Staphylococcus aureus A9537; assay type: cell-based; details: overnight 37° C., Nutrient Broth; for MIC: Staphylococcus aureus, A9537, Staph. aureus A9537, read-out: Minimum Inhibitory Concentration (M.I.C.)
# Source text: as §1
# Ser. marcescens A-20019 = assay: MIC, tube dilution, Serratia marcescens A20019; assay type: cell-based; details: overnight 37° C.; for MIC: Serratia marcescens, A20019, Serratia marcescens A20019, read-out: Minimum Inhibitory Concentration (M.I.C.)
# Source text: as §1
# [4] = system: Staph. aureus A-9537 and 50% serum; assay: MIC, tube dilution, Staph. aureus A9537 + 50% serum; assay type: cell-based, Staphylococcus aureus; details: overnight 37° C.; for MIC: Staphylococcus aureus, read-out: Minimum Inhibitory Concentration (M.I.C.)
# Source text: as §1
# Ent. cloacae A-9659 = assay: MIC, tube dilution, Enterobacter cloacae A9659; assay type: cell-based; details: overnight 37° C.; for MIC: Enterobacter cloacae, A9659, Enterobacter cloacae A9659, read-out: Minimum Inhibitory Concentration (M.I.C.)
# Source text: as §1
# Proteus vulgaris A9555 = assay: MIC, tube dilution, Proteus vulgaris (mirabilis) A9555; assay type: cell-based; details: overnight 37° C.; for MIC: read-out: Minimum Inhibitory Concentration (M.I.C.)
# Source text: as §1
# Ent. cloacae A-9656 = assay: MIC, tube dilution, Enterobacter cloacae A9656; assay type: cell-based; details: overnight 37° C.; for MIC: read-out: Minimum Inhibitory Concentration (M.I.C.)
# Source text: as §1
# [5] = read-out: Minimum Inhibitory Concentration (M.I.C.), Staph. aureus A9606 (Pen-Res)
# [6] = read-out: Minimum Inhibitory Concentration (M.I.C.), Staph. aureus A15097 (Meth-Res)
# [7] = Escherichia coli, A203411; E. coli A20341-1; overnight 37° C.; read-out: Minimum Inhibitory Concentration (M.I.C.)
SMILES,MIC [1] [µg/mL],MIC (K. pneumoniae A-15130) [µg/mL],MIC (Str. faecalis A-20688) [µg/mL],MIC (Ps. aeruginosa A-9843A) [µg/mL],MIC (Pr. mirabilis A-9900) [µg/mL],MIC (Str. pyogenes A-9604) [µg/mL],MIC (Str. pneumoniae A-9585) [µg/mL],MIC (Ps. aeruginosa A-21213) [µg/mL],MIC (E. coli A-15119) [µg/mL],MIC (Pr. morganii A-15153) [µg/mL],MIC (Staph. aureus A-9537) [µg/mL],MIC (Ser. marcescens A-20019) [µg/mL],MIC [4] [µg/mL],MIC (Ent. cloacae A-9659) [µg/mL],MIC (Proteus vulgaris A9555) [µg/mL],MIC (Proteus rettgeri A21203; Proteus rettgeri A21203) [µg/mL],"MIC [2, 5] [µg/mL]","MIC [3, 6] [µg/mL]",MIC (E. coli A-20341-1; [7]) [µg/mL],MIC (Ent. cloacae A-9656; Enterobacter cloacae A9656) [µg/mL],other results
COP(=O)(CCC1=C(C(=O)O)N2C(=O)CC2S1)OC (centres unmarked) [Example 57],,,,,,,,,,,,,,,,,,,,,Minimum Inhibitory Concentration (M.I.C.) [1]: > 125 µg/mL; Minimum Inhibitory Concentration (M.I.C.) (K. pneumoniae A-15130; K. pneumoniae A15130): 125 µg/mL; Minimum Inhibitory Concentration (M.I.C.) (Str. faecalis A-20688; Str. faecalis A20688): 125 µg/mL; Minimum Inhibitory Concentration (M.I.C.) (Ps. aeruginosa A-9843A; Pseudomonas aeruginosa A9843A): 125 µg/mL; Minimum Inhibitory Concentration (M.I.C.) (Proteus rettgeri A21203; Proteus rettgeri A21203): 16 µg/mL; Minimum Inhibitory Concentration (M.I.C.) ([2]; Staph. aureus A9606 (Pen-Res)): 125 µg/mL; Minimum Inhibitory Concentration (M.I.C.) (Pr. mirabilis A-9900; Proteus mirabilis A9900): 8 µg/mL; Minimum Inhibitory Concentration (M.I.C.) ([3]; Staph. aureus A15097 (Meth-Res)): > 125 µg/mL; Minimum Inhibitory Concentration (M.I.C.) (Str. pyogenes A-9604; Str. pyogenes A9604): .13 µg/mL; Minimum Inhibitory Concentration (M.I.C.) (Str. pneumoniae A-9585; Str. pneumoniae A9585): .06 µg/mL; Minimum Inhibitory Concentration (M.I.C.) (Ps. aeruginosa A-21213): 125 µg/mL; Minimum Inhibitory Concentration (M.I.C.) (E. coli A-20341-1; E. coli A20341-1; overnight 37° C.): > 125 µg/mL; Minimum Inhibitory Concentration (M.I.C.) (E. coli A-15119; E. coli A15119): 16 µg/mL; Minimum Inhibitory Concentration (M.I.C.) (Pr. morganii A-15153; Proteus morganii A15153): 32 µg/mL; Minimum Inhibitory Concentration (M.I.C.) (Staph. aureus A-9537; Staph. aureus A9537): 1 µg/mL; Minimum Inhibitory Concentration (M.I.C.) (Ser. marcescens A-20019; Serratia marcescens A20019): 63 µg/mL; Minimum Inhibitory Concentration (M.I.C.) [4]: 16 µg/mL; Minimum Inhibitory Concentration (M.I.C.) (Ent. cloacae A-9659; Enterobacter cloacae A9659): 125 µg/mL; Minimum Inhibitory Concentration (M.I.C.) (Proteus vulgaris A9555): 63 µg/mL; Minimum Inhibitory Concentration (M.I.C.) (Ent. cloacae A-9656; Enterobacter cloacae A9656): 63 µg/mL
"CC1=C(C(=O)O)N2C(=O)[C@@H](CO)[C@H]2S1 (relative stereo) [Example 68, trans 6-Hydroxymethyl-2-methylpenem-3-carboxylic Acid]",125,63,125,125,63,16,4,125,63,125,16,63,> 63,63,63,,,,,,"MIC (Proteus rettgeri A21203; A21203, Proteus rettgeri A21203): 63 µg/mL; MIC ([2]; Staph. aureus A9606 (Pen-Res), read-out: Minimum Inhibitory Concentration (M.I.C.)): 63 µg/mL; MIC ([3]; Staph. aureus A15097 (Meth-Res), read-out: Minimum Inhibitory Concentration (M.I.C.)): 63 µg/mL; MIC (E. coli A-20341-1; Escherichia coli, A203411, E. coli A20341-1; overnight 37° C.; read-out: Minimum Inhibitory Concentration (M.I.C.)): 63 µg/mL; MIC (Ent. cloacae A-9656; Enterobacter cloacae, A9656, Enterobacter cloacae A9656): 63 µg/mL"
"O=C([O-])C1=C(c2cccnc2)S[C@@H]2CC(=O)N12.[Na+] [Example 53, Sodium 2-(3-Pyridyl)penem-3-carboxylate]",> 125,16,8,125,2,0.13,0.06,125,2,8,1,8,> 63,16,2,2,8,16,63,32,
CC(C)OP(=O)(CCC1=C(C(=O)O)N2C(=O)CC2S1)OC(C)C (centres unmarked) [Preparation 54],63,> 125,63,125,125,125,63,125,63,125,32,125,32,125,> 125,125,> 125,63,32,32,
